Consider one molecule from paper PMC12427806, “Calpain-1 and Calpain-2 Promote Breast Cancer Metastasis” (Cells, 2025).

The structures appear in SMILES notation. Where a SMILES comes first, the peptide text is derived from it. [ ]: non-standard residue; d: D form. The star is where a group is joined. 5FAM = O=C1OC2(c3ccc(O)cc3Oc3cc(O)ccc32)c2ccc(C(=O)*)cc21

The subject of one experiment is MDA-MB-231 cells. Briefly: Single-cell migration on collagen (IncuCyte video microscopy, DiPer MSD analysis), WT cells. In kind it is cell-based, human. As to conditions: WT + mB27, 4 µM; Std. Error 0.6565; WT + vehicle slope 14.65. On the procedure: (§1) For the migration assay, plates were coated with 15 µg/mL rat tail collagen type 1 (BD-Biosciences, Franklin Lakes, NJ, USA). Cells were seeded at 1000 cells per well. Plates were imaged using the IncuCyte Live-Cell Analysis System (Essen Bioscience, Ann Arbor, MI, USA) every 10 min for 24 h. Cell migration was tracked using the “Track Object” program in Metamorph 7.8 (Molecular Devices, LLC., San Jose, CA, USA). The resulting coordinates were analyzed with the DiPer program to measure speed and directional persistence of migration. Experiments were conducted in triplicate, each with at least 20 cells per genotype. The results are presented as the mean ± standard error of the mean. […]
(§2) Migration propensity of calpain-deficient cells was measured by IncuCyte video microscopy of single-cell trajectories on a collagen substrate, which were then analyzed according to an established protocol using three measures of migration: (1) speed of migration (a raw value of displacement from frame to frame); (2) directionality (a ratio of cell displacement to path); and (3) mean square displacement (MSD, how much area a migrating cell has covered).
(§3) To evaluate the effect of this calpain inhibitor, we first measured MDA-MB-231 cancer cell migration in the presence of 4 µM mB27 (Figure 5a,b). […] A thorough quantification and statistical analysis of cell migration are presented in Supplementary Information 12.

In experiment [1] the test system is CAPNS1 KO MDA-MB-231 cells. Briefly: Single-cell migration on collagen (IncuCyte video microscopy, DiPer MSD analysis), CAPNS1 KO cells. In kind it is cell-based, human. On the procedure: as §1, §2, §3
A further experiment deals with WT MDA-MB-231 tumors. Put plainly: Orthotopic engraftment resect-and-wait model of mammary tumor growth and lung metastasis. In kind it is in vivo, Rag2-/- IL2Rγc-/- mice. The settings on record: n = 10. On the procedure: Cells were washed, counted, and resuspended in PBS to achieve a concentration of 1,000,000 cells in 40 µL and placed on ice and supplemented with Growth Factor Reduced Matrigel (Corning Inc., Corning, NY, USA, catalog number 354,230) in a 10:40 Matrigel/cell suspension ratio. The resulting mixture was maintained on ice until the engraftment. Matrigel was included in the engraftment suspension to promote initial cell retention in the engrafted bolus in the mammary fat pad and to ensure consistent tumor onset. While MDA-MB-231 cells can form tumors without matrix in Rag2^-/- IL2Rγc^-/- mice, the addition of Matrigel could reduce experimental variability and mimic the basement membrane or extracellular matrix components of the tumor microenvironment.
All animal procedures were approved by the university animal care committee in accordance with guidelines from the Canadian Council on Animal Care. […]
The wound clips were removed one week after the engraftment surgery, and the tumor size was measured daily until it reached 600 mm^3. […] When tumors reached the maximum volume (19 to 22 days after the engraftment surgery, determined individually for every mouse), they were resected by recovery surgery, and mice were then monitored for 12 days before being euthanized with CO2 and cervical dislocation and assessed for metastasis. […]

Consider `CC[C@H](C)[C@H](NC(=O)[C@H](Cc1ccc(O)cc1)NC(=O)[C@@H](NC(=O)[C@H](CO)NC(=O)[C@H](CO)NC(=O)[C@H](CCSC)NC(=O)[C@H]1CCCN1C(=O)[C@@H](CC(=O)O)NC(=O)c1ccc2c(c1)C(=O)OC21c2ccc(O)cc2Oc2cc(O)ccc21)[C@@H](C)O)C(=O)N[C@@H](CCC(=O)O)C(=O)N[C@@H](CCC(=O)O)C(=O)N[C@@H](CC(C)C)C(=O)NCC(=O)N[C@@H](CCCCN)C(=O)N[C@@H](CCCNC(=N)N)C(=O)N[C@@H](CCC(=O)O)C(=O)N[C@H](C(=O)N[C@H](C(=O)N[C@H](C(=O)N1CCC[C@H]1C(=O)N1CCC[C@H]1C(=O)N[C@@H](CCCCN)C(=O)N[C@@H](Cc1ccc(O)cc1)C(=O)N[C@@H](CCCNC(=N)N)C(=O)N[C@@H](CCC(=O)O)C(=O)N[C@@H](CC(C)C)C(=O)N[C@@H](CC(C)C)C(=O)N[C@@H](C)C(=O)N[C@@H](CCCNC(=N)N)C(=O)N[C@@H](CCCNC(=N)N)C(=O)N[C@@H](CCCNC(=N)N)C(=O)N[C@@H](CCCNC(=N)N)C(=O)N[C@@H](CCCNC(=N)N)C(=O)N[C@@H](CCCNC(=N)N)C(=O)N[C@H](CCCNC(=N)N)C(=O)N[C@H](CCCNC(=N)N)C(=O)N[C@H](CCCNC(=N)N)C(=O)O)[C@@H](C)CC)[C@@H](C)O)C(C)C` [mB27] (5FAM-[dD][dP]MSSTYIEELGKREVTIPPKYRELLARRRRRR[dR][dR][dR]-OH; N-terminus and C-terminus assumed), for which the “Best-fit slope of MSD” value was found to be 7.652 with MDA-MB-231 cells and 3.365 in experiment [1] (CAPNS1 KO + mB27, 4 µM, Std. Error 0.4558, CAPNS1 KO + vehicle slope 3.642). The “Effect of peptide on migration of CAPNS1 KO cells (in words)” value in experiment [1] (CAPNS1 KO MDA-MB-231 cells, 4 µM peptide, ANCOVA p = 0.6134) was “no effect”. This molecule came in with a Tumor growth rate in the experiment with WT MDA-MB-231 tumors (5 mg/kg/day intraperitoneally for 14 days from 50 mm^3 to 600 mm^3 tumor volume, vehicle 0.431 ± 0.046, p = 0.8554) of 0.428 ± 0.024 mm diameter per day. This molecule had a Lung metastasis in the experiment on WT MDA-MB-231 tumors (5 mg/kg/day intraperitoneally for 14 days, tumor resection at 600 mm^3, lungs assessed 12 days later, vehicle 1.12 ± 1.35, p = 0.102 (not significant)) of 0.34 ± 0.20 metastases per mm^2.
